Each structure is given as a SMILES string.

By EC50 is commonly meant the concentration at which the effect is half-maximal.

The target of this experiment is T1, Programmed cell death protein 4 (Homo sapiens, UniProt Q53EL6).
T1 sequence (Q53EL6 whole entry): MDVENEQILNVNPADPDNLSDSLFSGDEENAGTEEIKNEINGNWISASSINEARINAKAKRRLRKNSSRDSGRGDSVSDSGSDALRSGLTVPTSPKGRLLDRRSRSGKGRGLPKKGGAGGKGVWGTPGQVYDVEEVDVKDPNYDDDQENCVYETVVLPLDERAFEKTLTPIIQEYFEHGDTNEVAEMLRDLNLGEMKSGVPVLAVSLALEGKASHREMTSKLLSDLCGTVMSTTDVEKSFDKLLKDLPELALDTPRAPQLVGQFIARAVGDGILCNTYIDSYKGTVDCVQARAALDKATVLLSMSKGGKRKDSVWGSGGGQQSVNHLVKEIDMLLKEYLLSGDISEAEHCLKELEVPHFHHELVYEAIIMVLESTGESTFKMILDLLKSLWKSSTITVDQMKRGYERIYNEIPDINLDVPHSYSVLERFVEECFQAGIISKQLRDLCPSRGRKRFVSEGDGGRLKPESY
The experiment can be described thus: Inhibition of TPA-induced degradation of Pdcd4 (amino acid 39-91) expressed in human HEK293 cells assessed as minimum compound concentration required for 50% recovery of Pdcd4-luciferase signal incubated for 8 hrs by luciferase reporter gene assay.
On to `CCCCCCCCCCCCCCC[C@@H](O)C[C@H](O)C[C@H](O)C[C@H](O)C[C@H](O)C[C@H]1CC=CC(=O)O1` [Cryptocaryol A], for which the EC50 is 4.9 µM.

Regarding `CCCCCCCCCCCCCCC[C@H](C[C@H](O)C[C@H](O)C[C@H](O)C[C@H](O)C[C@H]1CC=CC(=O)O1)OC(C)=O` [Cryptocaryol B], the EC50 amounted to 3 µM. To `CCCCCCCCCCCCCCC[C@@H](O)C[C@H](O)C[C@H](O)C[C@H](O)C[C@H](O)C[C@@H]1OC(=O)C=C[C@@H]1O` [Cryptocaryol C] belongs 1.6 µM. With `CCCCCCCCCCCCCCC[C@H](C[C@H](O)C[C@H](O)C[C@H](O)C[C@H](O)C[C@@H]1OC(=O)C=C[C@@H]1O)OC(C)=O` [Cryptocaryol D] the figure was 1.5 µM; with `CCCCCCCCCCCCCCC[C@@H](O)C[C@H](O)C[C@H](O)C[C@H](O)C[C@@H]1OC(=O)C=C[C@@H]1O` [Cryptocaryol E], 1.8 µM. For the compound `CO[C@H]1C[C@@H]2CC[C@@H](C)[C@@](O)(O2)C(=O)C(=O)N2CCCC[C@H]2C(=O)O[C@H]([C@H](C)C[C@@H]2CC[C@@H](O)[C@H](OC)C2)CC(=O)[C@H](C)/C=C(\C)[C@@H](O)[C@@H](OC)C(=O)[C@H](C)C[C@H](C)/C=C/C=C/C=C/1C` [Rapamycin C-7, analog 4], the EC50 turned out to be 0.05 µM.

(Values after BindingDB's records for doi:10.1021/np100918z (National Cancer Institute-Frederick, 2011).)
